According to PubChem BioAssay (NCI):
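Five compound concentrations were applied to cells in 96-well plates for 48 hours; endpoints were derived by simple linear interpolation of the resulting dose-response curve. At the GI50, growth is halved. At the TGI there is no net growth.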

What was measured:
Test in all cases: NCI-60 cell line screen, 48 h
DU-145 prostate = tested on: DU-145 prostate
MDA-MB-435 = tested on: MDA-MB-435
MALME-3M melanoma = tested on: MALME-3M melanoma
HOP-62 NSCLC = tested on: HOP-62 NSCLC
T-47D breast = tested on: T-47D breast
HOP-92 NSCLC = tested on: HOP-92 NSCLC
BT-549 breast = tested on: BT-549 breast
LOX IMVI melanoma = tested on: LOX IMVI melanoma
M14 melanoma = tested on: M14 melanoma
OVCAR-3 ovarian = tested on: OVCAR-3 ovarian

SMILES	GI50 (DU-145 prostate) [µM]	TGI (DU-145 prostate) [µM]	GI50 (MDA-MB-435) [µM]	TGI (MDA-MB-435) [µM]	GI50 (MALME-3M melanoma) [µM]	TGI (MALME-3M melanoma) [µM]	GI50 (HOP-62 NSCLC) [µM]	TGI (HOP-62 NSCLC) [µM]	GI50 (T-47D breast) [µM]	TGI (T-47D breast) [µM]	GI50 (HOP-92 NSCLC) [µM]	TGI (HOP-92 NSCLC) [µM]	GI50 (BT-549 breast) [µM]	TGI (BT-549 breast) [µM]	GI50 (LOX IMVI melanoma) [µM]	TGI (LOX IMVI melanoma) [µM]	GI50 (M14 melanoma) [µM]	TGI (M14 melanoma) [µM]	GI50 (OVCAR-3 ovarian) [µM]	TGI (OVCAR-3 ovarian) [µM]
Oc1ccc(N=Nc2nccs2)c(O)c1	5.23	17.1	4.77	31	14.7	34.3	19.9	49.8	4.87	40.1	3.34	24.7	16.1	57.6	3.28	18.7	11	48.4	2.4	7.37
CN1C(NNC(=O)c2cccnc2)=NS(=O)(=O)c2cc(Cl)ccc21	> 100	> 100	> 100	> 100	> 100	> 100	> 100	> 100	> 100	> 100	> 100	> 100	> 100	> 100	> 100	> 100	> 100	> 100	> 100	> 100
COc1ccc(-c2nn(-c3cccc(Cl)c3)cc2-c2nc(N)[nH]c(=O)c2C#N)cc1	17.9	70.1	2.16	5.48	5.83	40.6	10.1	26.2	6.05	32.2	1.65	12.2	3.54	22.4	4.02	20.1	3.25	34	3.38	10
O=C(CCN1CCOCC1)Nc1cccc(-n2cc(-c3ccncc3)c(-c3ccc(Cl)c(O)c3)n2)c1	2.49	11.7	0.313	1.29	1.65	10.8	2.23	13.5	1.74	9.75	2.06	14	4.12	18.1	1.91	11.8	1.53	4.16	0.644	7.16
